We go through one compound from patent US12661362B2, “Methods for the prevention and treatment of hearing loss” (Ting Therapeutics LLC, priority 2020, dated 2026).

In the assay the test system is SHP77. In words: Survival of SHP77 cells with or without Cisplatin and Niclosamide. It is filed as cell-based. The settings on record: 10 nM. Here is the method:
Now referring to FIG. 8, In vitro model of […] incubated with or without Cisplatin and 10 nM of Niclosamide. Cells were maintained in culture with the aid of Matrigel as previously described in Kelley and Driver, Curr. Protoc. Neurosci. Ch.(4); Unit(4); 34.1-10 (2010). After cells had been in culture for 1 d, growth medium DMEM (12430-054; GIB CO Life Technologies, with 1% FBS [16000-044; GIB CO Life Technologies] and 50 μg/ml ampicillin) with or without test compounds may be added for preincubation for 1 hr. at 37° C. in 5% Co2, and may be followed by incubation with 50 μM Cisplatin (479306; Sigma-Aldrich) with or without the test compound in growth medium for 24 hr. at 37° C. A Cisplatin concentration of 50 μM may be used for the explant assay due to its consistent showing of decreases outer hair cells by about −40% in the mouse cochlea after 24 hours. Cochlea may be fixed in 4% PFA and stained for actin with Alex Fluor 568 phalloidin to determine the viability of the HCs. Cochlea may also be stained by DAPI, FM1-43 dye uptake, and immunohistochemical staining for known HC markers (including parvalbumin and myosin 7a. Cochlea may be imaged by confocal microscopy. Two 160-μm regions from middle turns may be photographed, and the number of intact HCs can be counted.

Turning to `O=C(Nc1ccc([N+](=O)[O-])cc1Cl)c1cc(Cl)ccc1O` [Niclosamide, 5-chloro-N-(2-chloro-4-nitrophenyl)-2-hydroxy-benzamide], the “effect on Cisplatin-tumor killing activity” value is reported as “did not affect Cisplatin-tumor killing activity”.
